This is an account of results in patent US9445594B2, “Molecules having certain pesticidal utilities, intermediates, compositions, and processes, related thereto” (priority 2014, dated 2016).

Read-outs that look alike come from different tables or passages of the source.

What all share (type): in vivo
Series [1] relates to Cabbage Looper (Trichoplusia ni, TRIPNI) ("CL"). Description: Bioassays on CL, 128-well diet tray assay. The following applies: 168 h, read-out: CL % Control (or Mortality) rating. As for the experimental part: (§1) Certain molecules disclosed in this document were tested against BAW, CEW, and CL using procedures described in the following examples. In the reporting of the results, the “BAW, CEW, & CL Rating Table” was used (See Table Section).
Bioassays on CL were conducted using a 128-well diet tray assay. one to five second instar CL larvae were placed in each well (3 mL) of the diet tray that had been previously filled with 1 mL of artificial diet to which 50 μg/cm^2 of the test compound (dissolved in 50 μL of 90:10 acetone-water mixture) had been applied (to each of eight wells) and then allowed to dry. Trays were covered with a clear self-adhesive cover and held at 25° C., 14:10 light-dark for five to seven days. Percent mortality was recorded for the larvae in each well; activity in the eight wells was then averaged. The results are indicated in the table entitled “Table ABC: Biological Results” (See Table Section).

Series [2] relates to Yellow Fever Mosquito (Aedes aegypti, AEDSAE) ("YFM"). Put plainly: Bioassays on YFM, 96-well plate larval assay. As to conditions: about 1 day-old larvae, from 4000 ppm DMSO master plate diluted, room temperature, scored after 3 days. As for the experimental part:
Certain molecules disclosed in this document were tested against YFM using procedures described in the following paragraph. In the reporting of the results, the “YFM Rating Table” was used (See Table Section).
Master plates containing 400 μg of a molecule dissolved in 100 μL of dimethyl sulfoxide (DMSO) (equivalent to a 4000 ppm solution) are used. A master plate of assembled molecules contains 15 μL per well. To this plate, 135 μL of a 90:10 water:acetone mixture is added to each well. A robot (Biomek® NXP Laboratory Automation Workstation) is programmed to dispense 15 μL aspirations from the master plate into an empty 96-well shallow plate (“daughter” plate). There are 6 reps (“daughter” plates) created per master. The created daughter plates are then immediately infested with YFM larvae.
The day before plates are to be treated, mosquito eggs are placed in Millipore water containing liver powder to begin hatching (4 g. into 400 mL). After the daughter plates are created using the robot, they are infested with 220 μL of the liver powder/larval mosquito mixture (about 1 day-old larvae). After plates are infested with mosquito larvae, a non-evaporative lid is used to cover the plate to reduce drying. Plates are held at room temperature for 3 days prior to grading. After 3 days, each well is observed and scored based on mortality.

The test system of series [3] is Beet Armyworm (Spodoptera exigua, LAPHEG) ("BAW"). Put plainly: Bioassays on BAW, 128-well diet tray assay. As to conditions: 168 h, read-out: BAW % Control (or Mortality) rating. As to the method:
as §1
Bioassays on BAW were conducted using a 128-well diet tray assay. one to five second instar BAW larvae were placed in each well (3 mL) of the diet tray that had been previously filled with 1 mL of artificial diet to which 50 μg/cm^2 of the test compound (dissolved in 50 μL of 90:10 acetone-water mixture) had been applied (to each of eight wells) and then allowed to dry. Trays were covered with a clear self-adhesive cover and held at 25° C., 14:10 light-dark for five to seven days. Percent mortality was recorded for the larvae in each well; activity in the eight wells was then averaged. The results are indicated in the table entitled “Table ABC: Biological Results” (See Table Section).

The mark [4] stands for this setting: second instar larvae, 50 μg/cm^2 on artificial diet, 25° C., five to seven days, average of eight wells.

Regarding `CCOc1cccc(NC(=O)Nc2ccc(-c3ncn(-c4ccc(OC(F)(F)F)cc4)n3)cc2)c1` [F39, 1-(3-ethoxyphenyl)-3-(4-(1-(4-(trifluoromethoxy)phenyl)-1H-1,2,4-triazol-3-yl)phenyl)urea], the mortality at 50 µg/cm2 was 50 to 100% in series [1] (setting [4]) and 0% in series [3] (setting [4]). For the same compound, the “YFM % Control (or Mortality) rating” value in series [2] was “D (No activity noticed in this bioassay)”.
In the same order, the values of `CSc1ccccc1-c1ccccc1NC(=S)Nc1ccc(-c2ncn(-c3ccc(OC(F)(F)F)cc3)n2)cc1` [F42, 1-(2′-(Methylthio)-[1,1′-biphenyl]-2-yl)-3-(4-(1-(4-(trifluoromethoxy)phenyl)-1H-1,2,4-triazol-3-yl)phenyl)thiourea] are 50 to 100%, 50 to 100% and “B (More than 0 - Less than 80)”.
On the same counts, the results for `FC(F)(F)Oc1ccc(-n2cnc(-c3ccc(NC(=S)Nc4ccccc4-c4nnco4)cc3)n2)cc1` [F44, 1-(2-(1,3,4-Oxadiazol-2-yl)phenyl)-3-(4-(1-(4-(trifluoromethoxy)phenyl)-1H-1,2,4-triazol-3-yl)phenyl)thiourea] are 0%, 0% and “D (No activity noticed in this bioassay)”.
In the same order, the values of `CC(C)c1ccccc1NC(=S)NCc1ccc(-c2ncn(-c3ccc(OC(F)(F)F)cc3)n2)cc1` [F45, 1-(2-isopropylphenyl)-3-(4-(1-(4-(trifluoromethoxy)phenyl)-1H-1,2,4-triazol-3-yl)benzyl)thiourea] are 50 to 100%, 0 to 50% and “A (80-100)”.
With `FC(F)(F)Oc1ccc(-n2cnc(-c3ccc(NC(=S)Nc4ccccc4-c4ccccc4)cc3)n2)cc1` [F47, 1-([1,1′-Biphenyl]-2-yl)-3-(4-(1-(4-(trifluoromethoxy)phenyl)-1H-1,2,4-triazol-3-yl)phenyl)thiourea], the mortality at 50 µg/cm2 is 50 to 100% in series [1] (setting [4]) and 0% in series [3] (setting [4]). The “YFM % Control (or Mortality) rating” value in series [2] is listed as “D (No activity noticed in this bioassay)”.
In the same order, the values of `O=C(Nc1ccc(-c2ncn(-c3ccc(OC(F)(F)F)cc3)n2)cc1)Nc1ccccc1C1CC1C1CC1` (stereo not drawn) [F49, 1-(2-([1,1′-Bi(cyclopropan)]-2-yl)phenyl)-3-(4-(1-(4-(trifluoromethoxy)phenyl)-1H-1,2,4-triazol-3-yl)phenyl)urea] are 50 to 100%, 0 to 50% and “D (No activity noticed in this bioassay)”.
On the same counts, the results for `FC(F)(F)Oc1ccc(-n2cnc(-c3ccc(NC(=S)Nc4ncccc4-c4ccccc4)cc3)n2)cc1` [F50, 1-(3-Phenylpyridin-2-yl)-3-(4-(1-(4-(trifluoromethoxy)phenyl)-1H-1,2,4-triazol-3-yl)phenyl)thiourea] are 0%, 0% and “D (No activity noticed in this bioassay)”.
Take `O=C(Nc1ccc(-c2ncn(-c3ccc(OC(F)(F)F)cc3)n2)cc1)Nc1ccccc1Cc1ccccc1` [F51, 1-(2-Benzylphenyl)-3-(4-(1-(4-(trifluoromethoxy)phenyl)-1H-1,2,4-triazol-3-yl)phenyl)urea]: the mortality at 50 µg/cm2 in series [1] (setting [4]) and in series [3] (setting [4]) was 0 to 50% throughout. In addition, in series [2], the “YFM % Control (or Mortality) rating” value is “D (No activity noticed in this bioassay)”.
Turning to `CC(C)c1ccccc1NC(=O)Nc1ccc(-c2ncn(-c3ccc(OC(F)(F)C(F)(F)F)cc3)n2)cc1` [F54, 1-(2-Isopropylphenyl)-3-(4-(1-(4-(perfluoroethoxy)phenyl)-1H-1,2,4-triazol-3-yl)phenyl)urea], the mortality at 50 µg/cm2 in series [1] (setting [4]) and in series [3] (setting [4]) was 50 to 100% throughout. For the same compound, the “YFM % Control (or Mortality) rating” value in series [2] was “D (No activity noticed in this bioassay)”.
For the compound `FC(F)(F)Oc1ccc(-n2cnc(-c3ccc(NC(=S)Nc4ncccc4-c4cccnc4)cc3)n2)cc1` [F56, 1-([3,3′-Bipyridin]-2-yl)-3-(4-(1-(4-(trifluoromethoxy)phenyl)-1H-1,2,4-triazol-3-yl)phenyl)thiourea], the mortality at 50 µg/cm2 in series [1] (setting [4]) lay in the range of 50 to 100%; in series [3] (setting [4]), 0 to 50%. The “YFM % Control (or Mortality) rating” value in series [2] is on record as “D (No activity noticed in this bioassay)”.
In the same order, the values of `CSc1ccccc1-c1cccnc1NC(=O)Nc1ccc(-c2ncn(-c3ccc(OC(F)(F)F)cc3)n2)cc1` [F59, 1-(3-(2-(Methylthio)phenyl)pyridin-2-yl)-3-(4-(1-(4-(trifluoromethoxy)phenyl)-1H-1,2,4-triazol-3-yl)phenyl)urea] are 50 to 100%, 50 to 100% and “D (No activity noticed in this bioassay)”.
In the same order, the values of `C=C(C)c1ccccc1NC(=O)Nc1ccc(-c2ncn(-c3ccc(OC(F)(F)F)cc3)n2)cc1` [F61, 1-(2-(Prop-1-en-2-yl)phenyl)-3-(4-(1-(4-(trifluoromethoxy)phenyl)-1H-1,2,4-triazol-3-yl)phenyl)urea] are 50 to 100%, 50 to 100% and “D (No activity noticed in this bioassay)”.
Take `O=C(Nc1ccc(-c2ncn(-c3ccc(OC(F)(F)F)cc3)n2)cc1)Nc1ccccc1-c1cccnc1` [F62, 1-(2-(Pyridin-3-yl)phenyl)-3-(4-(1-(4-(trifluoromethoxy)phenyl)-1H-1,2,4-triazol-3-yl)phenyl)urea]: the mortality at 50 µg/cm2 in series [1] (setting [4]) and in series [3] (setting [4]) was 50 to 100% each time. Moreover, the “YFM % Control (or Mortality) rating” value in series [2] was “B (More than 0 - Less than 80)”.
In the case of `O=C(Nc1ccc(-c2ncn(-c3ccc(OC(F)(F)F)cc3)n2)cc1)Nc1ccccc1C(F)(F)F` [F64, 1-(4-(1-(4-(trifluoromethoxy)phenyl)-1H-1,2,4-triazol-3-yl)phenyl)-3-(2-(trifluoromethyl)phenyl)urea], the mortality at 50 µg/cm2 in series [1] (setting [4]) and in series [3] (setting [4]) was 50 to 100% each time. In addition, in series [2], the “YFM % Control (or Mortality) rating” value was “B (More than 0 - Less than 80)”.
Take `CC(C)c1ccccc1NC(=S)NCCCc1ccc(-c2ncn(-c3ccc(OC(F)(F)F)cc3)n2)cc1` [F76, 1-(2-isopropylphenyl)-3-(3-(4-(1-(4-(trifluoromethoxy)phenyl)-1H-1,2,4-triazol-3-yl)phenyl)propyl)thiourea]: the mortality at 50 µg/cm2 in series [1] and in series [3] was 50 to 100% throughout. Further, the “YFM % Control (or Mortality) rating” value in series [2] is “A (80-100)”.
For `Cc1ccccc1NC(=O)NCCCc1ccc(-c2ncn(-c3ccc(OC(F)(F)F)cc3)n2)cc1` [F77, 1-(o-tolyl)-3-(3-(4-(1-(4-(trifluoromethoxy)phenyl)-1H-1,2,4-triazol-3-yl)phenyl)propyl)urea], the mortality at 50 µg/cm2 in series [1] (setting [4]) and in series [3] (setting [4]) was 50 to 100% each time. Also, the “YFM % Control (or Mortality) rating” value in series [2] is “A (80-100)”.
For `CC(C)c1ccccc1NC(=O)NCCCc1ccc(-c2ncn(-c3ccc(OC(F)(F)F)cc3)n2)cc1` [F78, 1-(2-Isopropylphenyl)-3-(3-(4-(1-(4-(trifluoromethoxy)phenyl)-1H-1,2,4-triazol-3-yl)phenyl)propyl)urea], the mortality at 50 µg/cm2 in series [1] (setting [4]) and in series [3] (setting [4]) was 50 to 100% in each case. The “YFM % Control (or Mortality) rating” value in series [2] is on record as “A (80-100)”.
`COc1cccc(NC(=O)NCCCc2ccc(-c3ncn(-c4ccc(OC(F)(F)F)cc4)n3)cc2)c1` [F80, 1-(3-Methoxyphenyl)-3-(3-(4-(1-(4-(trifluoromethoxy)phenyl)-1H-1,2,4-triazol-3-yl)phenyl)propyl)urea]: the mortality at 50 µg/cm2 in series [1] (setting [4]) and in series [3] (setting [4]) was 50 to 100% in each case. The “YFM % Control (or Mortality) rating” value in series [2] is “A (80-100)”.

One may read the mortality as the percentage killed.
